Measured values from US8048458B2, “Saponin and preservative compositions for reduction of protozoa” (Sartec Corporation, priority 2006, dated 2011).

System: protozoa
Assay: In vitro treatment of washed rumen protozoa: cell count and Live/Dead stain, % killed
Format: cell-based, rumen protozoa from a Holstein-Friesian cow
Conditions: Yucca 1000 ppm where + Y, 2 hours, 39° C.; for % Viable: Live/Dead BacLight Stain; for % Killed by Treatment: standardized to blank
Description: Rumen contents were obtained from a rumen cannulated Holstein-Friesian cow 10 hours post-prandial. […] Sedimented protozoa were aspirated to fresh CBD and washed twice with warm CBD. Protozoa were resuspended in warm CBD.
Crude yucca was diluted in water to the desired concentration. […] Ethoxyquin was diluted in absolute ethanol to obtain concentrations which correspond to field concentrations of 0.5 g, 1.0 g and 1.5 g.
Experimental treatments were as follows:
Individual treatment tubes were flushed with carbon dioxide prior to sealing and placement at 39° C. for 2 hours with occasional mixing by tube inversion.
Total number of protozoa present in each treatment was determined on the formalin fixed preparation and on the corresponding sample the percentage of live protozoa as indicated by the Live/Dead® BacLight Stain was also determined.
[…] was determined by multiplying the percent of live protozoa by the total protozoa present in each treatment. […] The number of viable protozoa for each treatment was then subtracted from the number of viable protozoa present in the blank (control) treatment. The difference is the number killed by the corresponding treatment. The treatments were then standardized to the blank by calculating a percentage killed by treatment.

[1] = EQ 51.6 ug in vitro (0.5 g/head in vivo)
[2] = EQ 103 ug in vitro (1 g/head in vivo)
[3] = EQ 154 ug in vitro (1.5 g/head in vivo)

`CCOc1ccc2c(c1)C(C)=CC(C)(C)N2` [EQ, 1,2-dihydro-6-ethoxy-2,2,4-trimethylquinoline] was tested, and the “# Live” value [1] was 7.13E+04, the “% Killed by Treatment using Ethanol control as Baseline” value (“% Killed by Treatment … as Baseline” for short) [1] was 23% and the Cell count [1] was 8.80E+04. For the same molecule, the “% Viable” value [1] was 81%, the “% Killed by Treatment” value [1] was 18% and the “# Live” value [2] was 7.35E+04. The “% Killed by Treatment … as Baseline” value [2] was 20%, the Cell count [2] was 9.30E+04 and the “% Viable” value [2] was 79%. For the same molecule, the “% Killed by Treatment” value [2] was 16%, the “# Live” value [3] was 5.40E+04 and the “% Killed by Treatment … as Baseline” value [3] was 41%. For the same molecule, the Cell count [3] was 9.00E+04, the “% Viable” value [3] was 60% and the “% Killed by Treatment” value [3] was 38%.
